For one experiment, the system named is lipase. Briefly: Effect of CaCl2 and NaCl on lipase activity (deestrification of red-pepper carotenoids). Type of experiment: biochemical. The note with it: 150 mM NaCl without CaCl2. As to the method:
The activity of lipase at pH 7.6 at 37.0° C. for 18 hours on the deestrification of red-pepper carotenoids was measured in the presence of CaCl2 and NaCl.

A short description of experiment [1]: Enzymatic deesterification of paprika oleoresin carotenoids by lipases, HPLC. The note with it: similar assays, 37° C. Type of experiment: biochemical. The protocol: HPLC was conducted on a Shimadzu LC-10 AT equipped with SCL-10A Shimadzu diode array detector. Photodiode array measurements of spectral properties from the individual peaks (from 260 to 540 nm) were determined at the upslope, apex and downslope. The column (Merck RP-18e 3.4×250 […], 5-μm particles) was used for HPLC separations. The peaks were detected at 450 and 474 nm.
Paprika oleoresin (20 mg) was mixed with TWEEN-20 (200 μl) or deoxycholate (100 mg) and 10 ml of H2O. The emulsion has been shaken at 37° C. for 24 hours. Extraction of carotenoids was performed by the addition of 4 ml of ethanol and 5 ml of hexane. The extraction with hexane was done repeatedly until no color could be observed in the extracts. The combined hexane extracts were washed with water (25 ml) and dried over anhydrous sodium sulfate for HPLC determination of the carotenoids.
Immobilized lipase from Candida rugosa (Sigma-Aldrich Corp., St Louis, Mo.). Following use in deesterification, the enzyme-bearing beads are recovered by precipitation at 15 K RPM, and stored at 4° C. until reuse.
Immobilized lipase beads may be recycled by precipitation, and reused. […] FIG. 8 compares the efficiency of deesterification with fresh, once-, and twice-recycled immobilized lipase, quantifying the efficient reuse of the immobilized enzyme with paprika oleoresin. […]

In the experiment on lipase, `[Cl-].[Na+]` [NaCl] had a deestrification of 87%.

B1: pancreatic lipase: pancreatic lipase from porcine, Sigma (protein, UniProt P00591 1-450, looked up)
Pancreatic triacylglycerol …: SEVCFPRLGCFSDDAPWAGIVQRPLKILPWSPKDVDTRFLLYTNQNQNNYQELVADPSTITNSNFRMDRKTRFIIHGFIDKGEEDWLSNICKNLFKVESVNCICVDWKGGSRTGYTQASQNIRIVGAEVAYFVEVLKSSLGYSPSNVHVIGHSLGSHAAGEAGRRTNGTIERITGLDPAEPCFQGTPELVRLDPSDAKFVDVIHTDAAPIIPNLGFGMSQTVGHLDFFPNGGKQMPGCQKNILSQIVDIDGIWEGTRDFVACNHLRSYKYYADSILNPDGFAGFPCDSYNVFTANKCFPCPSEGCPQMGHYADRFPGKTNGVSQVFYLNTGDASNFARWRYKVSVTLSGKKVTGHILVSLFGNEGNSRQYEIYKGTLQPDNTHSDEFDSDVEVGDLQKVKFIWYNNNVINPTLPRVGASKITVERNDGKVYDFCSQETVREEVLLTLNPC
On to B1, for which the “deesterification of paprika carotenoids compared with lipase amano 30” value in experiment [1] is recorded as “far poorer results”.

Values taken from patent publication US7192731B2, “Methods for efficient extraction of carotenoids using an esterase” (The State of Israel, Ministry of Agriculture & Rural …, priority 2001, dated 2007).
